# Results reported in the NIST ThermoML archive (doi:10.1021/acs.jced.6b00269).
# ± gives the expanded uncertainty stated by the source.
# Details: for viscosity / mass density: 101.33 kPa, Liquid; for viscosity: Cone and plate viscometry; for mass density: Vibrating tube method; for Normal melting temperature: Crystal, DTA; for Glass transition temperature: DSC
SMILES,viscosity (278.15 K),viscosity (283.15 K),mass density (283.15 K),viscosity (288.15 K),mass density (288.15 K),viscosity (293.15 K),mass density (293.15 K),mass density (295.15 K),mass density (298.15 K),mass density (303.15 K),mass density (308.15 K),mass density (313.15 K),mass density (318.15 K),mass density (323.15 K),mass density (328.15 K),mass density (333.15 K),mass density (338.15 K),mass density (343.15 K),mass density (348.15 K),mass density (353.15 K),further results
CCCC[P+](CC)(CC)CC.Cc1ncc([N+](=O)[O-])[n-]1 [butyltriethylphosphonium 2-methyl-5-nitroimidazolide],2180 ± 210 mPa·s,1350 ± 120 mPa·s,1074.4 ± 6.3 kg/m3,858 ± 73 mPa·s,1071.3 ± 6.2 kg/m3,569 ± 46 mPa·s,1068.3 ± 6.2 kg/m3,1067.1 ± 6.2 kg/m3,1065.3 ± 6.1 kg/m3,1062.3 ± 6.1 kg/m3,1059.3 ± 6.1 kg/m3,1056.5 ± 6 kg/m3,1053.6 ± 6 kg/m3,1050.7 ± 6 kg/m3,1047.8 ± 5.9 kg/m3,1044.9 ± 5.9 kg/m3,1042.1 ± 5.9 kg/m3,1039.2 ± 5.8 kg/m3,1036.4 ± 5.8 kg/m3,1033.5 ± 5.8 kg/m3,viscosity (298.15 K): 391 ± 30 mPa·s; viscosity (303.15 K): 277 ± 20 mPa·s; viscosity (308.15 K): 202 ± 14 mPa·s; viscosity (313.15 K): 150 ± 10 mPa·s; viscosity (318.15 K): 115 ± 8 mPa·s; viscosity (323.15 K): 90 ± 6 mPa·s; viscosity (328.15 K): 72 ± 5 mPa·s; viscosity (333.15 K): 58 ± 4 mPa·s; Normal melting temperature: 17 ± 2 °C; Glass transition temperature: -71 ± 2 °C
CCCCCCn1cc[n+](C)c1.O=[N+]([O-])c1cn[n-]c1 [1-hexyl-3-methylimidazolium 4-nitropyrazolide],3310 ± 340 mPa·s,1810 ± 170 mPa·s,1133.6 ± 7 kg/m3,1040 ± 92 mPa·s,1130 ± 6.9 kg/m3,633 ± 52 mPa·s,1126.6 ± 6.9 kg/m3,1125.3 ± 6.9 kg/m3,1123.3 ± 6.8 kg/m3,1120 ± 6.8 kg/m3,1116.6 ± 6.8 kg/m3,1113.4 ± 6.7 kg/m3,1110.2 ± 6.7 kg/m3,1107 ± 6.6 kg/m3,1103.8 ± 6.6 kg/m3,1100.6 ± 6.6 kg/m3,1097.4 ± 6.5 kg/m3,1094.2 ± 6.5 kg/m3,1091.1 ± 6.5 kg/m3,1087.9 ± 6.4 kg/m3,viscosity (298.15 K): 407 ± 32 mPa·s; viscosity (303.15 K): 275 ± 20 mPa·s; viscosity (308.15 K): 192 ± 14 mPa·s; viscosity (313.15 K): 139 ± 10 mPa·s; viscosity (318.15 K): 102 ± 7 mPa·s; viscosity (323.15 K): 79 ± 5 mPa·s; viscosity (328.15 K): 63 ± 4 mPa·s; viscosity (333.15 K): 51 ± 3 mPa·s; Normal melting temperature: 33 ± 2 °C; Glass transition temperature: -56 ± 2 °C
CC[P+](CC)(CC)COCCOC.O=S(=O)([N-]S(=O)(=O)C(F)(F)F)C(F)(F)F,84 ± 6 mPa·s,65 ± 4 mPa·s,1373.9 ± 10 kg/m3,51 ± 3 mPa·s,1369.4 ± 10 kg/m3,,1364.8 ± 10 kg/m3,1363 ± 10 kg/m3,1360.3 ± 10 kg/m3,1355.7 ± 10 kg/m3,1351.2 ± 10 kg/m3,1346.8 ± 9.9 kg/m3,1342.3 ± 9.8 kg/m3,1337.9 ± 9.8 kg/m3,1333.4 ± 9.7 kg/m3,1329 ± 9.6 kg/m3,1324.6 ± 9.6 kg/m3,1320.2 ± 9.5 kg/m3,1315.8 ± 9.4 kg/m3,1311.5 ± 9.4 kg/m3,
"Cc1n(C2CCCC2)cc[n+]1C.O=[N+]([O-])c1cn[n-]c1 [1-cyclopentyl-2,3-dimethylimidazolium 4-nitropyrazolide]",,,,,,,,,,,,,,,,,,,,,Normal melting temperature: 92 ± 2 °C
CCCCCCSC(N(C)C)=[N+](C)C.O=S(=O)([N-]S(=O)(=O)C(F)(F)F)C(F)(F)F,268 ± 20 mPa·s,193 ± 14 mPa·s,1352.2 ± 10 kg/m3,143 ± 10 mPa·s,1347.8 ± 9.9 kg/m3,109 ± 7 mPa·s,1343.4 ± 9.8 kg/m3,1341.6 ± 9.8 kg/m3,1339 ± 9.8 kg/m3,1334.6 ± 9.7 kg/m3,1330.2 ± 9.7 kg/m3,1325.8 ± 9.6 kg/m3,1321.5 ± 9.5 kg/m3,1317.1 ± 9.5 kg/m3,1312.8 ± 9.4 kg/m3,1308.5 ± 9.3 kg/m3,1304.2 ± 9.3 kg/m3,1299.8 ± 9.2 kg/m3,1295.6 ± 9.2 kg/m3,1291.3 ± 9.1 kg/m3,viscosity (298.15 K): 85 ± 6 mPa·s; viscosity (303.15 K): 68 ± 5 mPa·s; viscosity (308.15 K): 55 ± 4 mPa·s; Glass transition temperature: -82 ± 2 °C
CCCCCC[n+]1ccn(C)c1.O=S(=O)([N-]S(=O)(=O)C(F)(F)F)C(F)(F)F,203 ± 14 mPa·s,150 ± 10 mPa·s,1386.6 ± 10 kg/m3,113 ± 8 mPa·s,1382.1 ± 10 kg/m3,87 ± 6 mPa·s,1377.5 ± 10 kg/m3,1375.7 ± 10 kg/m3,1372.9 ± 10 kg/m3,1368.4 ± 10 kg/m3,1363.8 ± 10 kg/m3,1359.3 ± 10 kg/m3,1354.8 ± 10 kg/m3,1350.3 ± 10 kg/m3,1345.8 ± 9.9 kg/m3,1341.3 ± 9.8 kg/m3,1336.8 ± 9.8 kg/m3,1332.4 ± 9.7 kg/m3,1327.9 ± 9.6 kg/m3,1323.5 ± 9.6 kg/m3,viscosity (298.15 K): 68 ± 5 mPa·s; viscosity (303.15 K): 55 ± 4 mPa·s
